From ChEMBL document CHEMBL3351608, “2-Phenylindole and Arylsulphonamide: Novel Scaffolds Bactericidal against Mycobacterium tuberculosis” (ACS Med Chem Lett, 2014)
≈ marks a conversion by molar mass, not a printed value.

What was measured:
[1] = test system: Mycobacterium tuberculosis; assay: microbe, parasite or virus in culture; settings: 120 h
[2] = test system: Mycobacterium tuberculosis; type: functional; settings: H37Rv, 120 h

SMILES	MIC [1] [µM]	MIC [2] [µM]
CC1COC2(CCN(c3nc(=O)c4cc(C(F)(F)F)cc([N+](=O)[O-])c4s3)CC2)O1 (centres undefined)	0.01 (≈ 0.00431 µg/mL)	
COCCN(C1CCN(Cc2c(-c3ccccc3)[nH]c3c(C)cccc23)C1)S(C)(=O)=O (centres undefined)	1.6 (≈ 0.707 µg/mL)	0.8 (≈ 0.353 µg/mL)
O=S(=O)(NC1CCN(Cc2ccncc2)CC1)c1ccc(-n2cccn2)cc1	1.6 (≈ 0.636 µg/mL)	3.3 (≈ 1.31 µg/mL)
Cc1cc(-n2cccn2)ccc1S(=O)(=O)NC1CCN(Cc2ccncc2)CC1		0.8 (≈ 0.329 µg/mL)
Cc1cccc2c(CN3CCC(NS(C)(=O)=O)C3)c(-c3ccccc3)[nH]c12 (racemic)		1.6 (≈ 0.614 µg/mL)
NNC(=O)c1ccncc1 [ISONIAZID]	0.5 (≈ 0.0686 µg/mL)	
CO[C@H]1/C=C/O[C@@]2(C)Oc3c(C)c(O)c4c(O)c(c(/C=N/N5CCN(C)CC5)c(O)c4c3C2=O)NC(=O)/C(C)=C\C=C\[C@H](C)[C@H](O)[C@@H](C)[C@@H](O)[C@@H](C)[C@H](OC(C)=O)[C@@H]1C [RIFAMPIN]	12.5 (≈ 10.3 µg/mL)	
